Series [1] concerns the target T1, CYP450 2C9 (Homo sapiens, UniProt P11712).
The target of series [2] is T2, aryl hydrocarbon receptor (AhR) (Mus musculus, UniProt P30561).
T2 sequence (P30561 10-848): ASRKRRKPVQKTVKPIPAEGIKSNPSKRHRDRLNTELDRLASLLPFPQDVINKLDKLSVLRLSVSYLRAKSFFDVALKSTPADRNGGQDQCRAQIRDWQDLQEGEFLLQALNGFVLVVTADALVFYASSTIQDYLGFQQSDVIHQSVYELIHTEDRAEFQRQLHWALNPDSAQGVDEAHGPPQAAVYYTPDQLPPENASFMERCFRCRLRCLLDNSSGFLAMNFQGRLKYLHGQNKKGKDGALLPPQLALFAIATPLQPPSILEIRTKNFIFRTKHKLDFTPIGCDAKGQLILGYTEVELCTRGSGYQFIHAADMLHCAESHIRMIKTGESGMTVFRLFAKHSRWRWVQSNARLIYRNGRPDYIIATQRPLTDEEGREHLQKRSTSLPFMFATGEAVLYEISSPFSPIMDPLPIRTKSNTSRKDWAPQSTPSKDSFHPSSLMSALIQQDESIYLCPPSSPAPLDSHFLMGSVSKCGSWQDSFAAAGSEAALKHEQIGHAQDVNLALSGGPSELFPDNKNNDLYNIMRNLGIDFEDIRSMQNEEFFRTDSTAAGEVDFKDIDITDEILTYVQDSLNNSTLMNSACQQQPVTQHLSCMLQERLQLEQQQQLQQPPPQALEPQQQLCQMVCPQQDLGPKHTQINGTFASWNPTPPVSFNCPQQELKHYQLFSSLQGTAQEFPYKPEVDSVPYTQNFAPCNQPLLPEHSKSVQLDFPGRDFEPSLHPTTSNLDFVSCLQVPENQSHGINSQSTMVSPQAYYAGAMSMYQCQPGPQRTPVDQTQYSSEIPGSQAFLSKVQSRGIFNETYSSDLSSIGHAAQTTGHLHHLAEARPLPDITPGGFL
Nature of the series: cell-based.

Series [3] addresses T3, human carboxylesterase CES3 (Homo sapiens, UniProt Q6UWW8).
T3 construct: made in house; host or cells: baculovirus-insect cells
T3 sequence (Q6UWW8 27-571): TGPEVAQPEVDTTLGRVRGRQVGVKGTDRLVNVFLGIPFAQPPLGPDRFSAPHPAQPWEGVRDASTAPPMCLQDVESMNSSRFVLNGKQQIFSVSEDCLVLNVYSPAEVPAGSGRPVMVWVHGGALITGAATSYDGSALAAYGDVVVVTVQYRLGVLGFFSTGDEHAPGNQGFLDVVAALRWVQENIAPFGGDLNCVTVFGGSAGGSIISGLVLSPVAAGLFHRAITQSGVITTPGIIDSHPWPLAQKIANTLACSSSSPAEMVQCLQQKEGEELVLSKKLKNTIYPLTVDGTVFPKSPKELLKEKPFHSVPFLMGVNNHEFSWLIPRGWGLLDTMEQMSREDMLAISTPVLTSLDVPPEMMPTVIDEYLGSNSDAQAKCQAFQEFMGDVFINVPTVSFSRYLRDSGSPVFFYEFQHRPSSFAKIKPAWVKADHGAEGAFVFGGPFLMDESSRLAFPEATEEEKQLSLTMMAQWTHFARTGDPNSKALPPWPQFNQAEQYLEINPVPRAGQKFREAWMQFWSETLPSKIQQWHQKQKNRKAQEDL
Nature of the series: human CES3 enzyme inhibition assay (CMNA substrate). Format: biochemical. An excerpt: (§1) Recombinant human soluble epoxide hydrolase (sEH) was produced in a baculovirus expression system ([Beetham et al. 1993]) and purified by affinity chromatography ([Wixtrom et al. 1988]). […] The CESs were partially purified as previously described ([Nishi et al. 2006]), whereas microsomal preparations were used for FAAH and PON2 ([Huang et al. 2007]). Human liver cytosol and microsome extracts were obtained from BD Biosciences (San Jose, CA). Protein concentration was quantified using the Pierce BCA (bicinchoninic acid) assay (Pierce, Rockford, IL) using bovine serum albumin (BSA) as the calibrating standard.
(§2) Although the conditions for each enzyme assay were different (for details, see Table 1), the enzymatic assays were all run in a similar format. Enzymes were used at a concentration that results in linear generation of product with increasing time and protein concentration, as well as yielding a signal that was 3–20 times greater than the background. […]
(§3) For counterscreening, fresh solutions of all positive compounds were prepared in DMSO. […] IC50 values were calculated by nonlinear regression of at least five data points using SigmaPlot, version 9.01 (Systat Software Inc., Chicago, IL). […] Similarly, half-maximal effective concentration (EC50) values for agonists of the AhR and ER bioassays were determined, and the results are presented as the mean of triplicate analysis. […]

For series [4], the target named is T1, CYP450 2C9. As to the kind of experiment: biochemical.
The target in another series is T4, estrogen receptor (ER) (Homo sapiens, UniProt P03372).
T4 construct: endogenous in cells; host or cells: BG1Luc4E2 (human ovarian cell line per title of Rogers and Denison 2000)
Nature of the series: ER CALUX luciferase reporter bioassay (BG1Luc4E2/ER-α-positive cells). Format: cell-based. To be noted: for EC50: agonist, ER CALUX luciferase induction.

The target in series [5] is T5, human soluble epoxide hydrolase (sEH) (Homo sapiens, UniProt P34913).
T5 construct: made in house; host or cells: baculovirus expression system
T5 sequence (P34913 1-555): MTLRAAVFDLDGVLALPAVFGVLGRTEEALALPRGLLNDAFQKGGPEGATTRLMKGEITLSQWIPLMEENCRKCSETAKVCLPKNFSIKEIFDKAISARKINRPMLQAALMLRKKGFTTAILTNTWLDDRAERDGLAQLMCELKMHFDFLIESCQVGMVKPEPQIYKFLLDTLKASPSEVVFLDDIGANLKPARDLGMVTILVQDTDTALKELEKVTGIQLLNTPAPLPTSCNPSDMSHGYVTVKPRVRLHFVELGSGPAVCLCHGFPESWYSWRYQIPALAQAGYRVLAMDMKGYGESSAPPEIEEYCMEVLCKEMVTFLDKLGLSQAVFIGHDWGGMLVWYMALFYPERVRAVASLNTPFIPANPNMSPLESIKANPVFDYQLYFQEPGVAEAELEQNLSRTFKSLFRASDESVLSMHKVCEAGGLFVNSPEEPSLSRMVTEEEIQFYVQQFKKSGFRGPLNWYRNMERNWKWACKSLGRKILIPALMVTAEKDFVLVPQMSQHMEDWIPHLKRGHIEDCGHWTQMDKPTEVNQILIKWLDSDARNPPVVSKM
As to the kind of experiment: human sEH enzyme inhibition assay (CMNPC substrate, fluorescence kinetic). To be noted: recombinant purified enzyme, CMNPC 5 μM, counterscreen; mean ± SD. Format: biochemical.
Excerpt: as §1, §2, §3
(A counterscreen serves to expose hits that act by an unwanted route or on another target.)

Series [6] has as its target T6, human carboxylesterase CES1 (Homo sapiens, UniProt P23141).
T6 construct: made in house; host or cells: baculovirus-insect cells
T6 sequence (P23141 18-567): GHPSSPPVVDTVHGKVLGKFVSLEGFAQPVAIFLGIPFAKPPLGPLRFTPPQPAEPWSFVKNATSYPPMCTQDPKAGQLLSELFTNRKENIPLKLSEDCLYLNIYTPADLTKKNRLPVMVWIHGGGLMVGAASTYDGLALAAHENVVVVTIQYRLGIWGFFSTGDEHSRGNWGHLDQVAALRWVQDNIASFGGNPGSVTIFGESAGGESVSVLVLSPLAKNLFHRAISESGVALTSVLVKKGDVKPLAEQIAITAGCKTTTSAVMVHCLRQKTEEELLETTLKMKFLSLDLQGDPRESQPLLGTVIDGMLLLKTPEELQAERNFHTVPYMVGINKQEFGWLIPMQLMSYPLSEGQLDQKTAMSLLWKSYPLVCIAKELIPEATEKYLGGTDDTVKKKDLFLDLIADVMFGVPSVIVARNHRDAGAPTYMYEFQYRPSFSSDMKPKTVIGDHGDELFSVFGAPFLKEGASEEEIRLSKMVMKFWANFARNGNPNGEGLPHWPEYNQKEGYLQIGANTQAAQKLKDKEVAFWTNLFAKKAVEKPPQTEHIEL
Nature of the series: biochemical.

Where two headings read alike, the source gives them in different places. Some results are limits rather than exact numbers.

T4 sequence (P03372 whole entry): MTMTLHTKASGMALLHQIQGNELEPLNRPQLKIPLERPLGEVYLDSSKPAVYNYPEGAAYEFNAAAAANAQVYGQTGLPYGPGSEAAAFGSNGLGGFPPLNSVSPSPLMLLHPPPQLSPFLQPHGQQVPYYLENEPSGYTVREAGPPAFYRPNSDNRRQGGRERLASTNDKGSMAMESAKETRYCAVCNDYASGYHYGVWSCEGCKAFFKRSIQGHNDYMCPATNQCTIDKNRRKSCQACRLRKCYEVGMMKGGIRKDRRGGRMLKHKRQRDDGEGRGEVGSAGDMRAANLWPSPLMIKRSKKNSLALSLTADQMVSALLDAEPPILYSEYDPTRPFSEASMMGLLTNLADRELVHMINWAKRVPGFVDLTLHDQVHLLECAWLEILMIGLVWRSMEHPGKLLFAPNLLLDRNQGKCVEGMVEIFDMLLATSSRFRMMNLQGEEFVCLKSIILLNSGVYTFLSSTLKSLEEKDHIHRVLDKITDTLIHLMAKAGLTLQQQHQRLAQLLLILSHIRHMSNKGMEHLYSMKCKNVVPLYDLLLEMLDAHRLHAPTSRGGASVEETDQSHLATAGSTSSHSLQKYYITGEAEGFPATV
T1 sequence (P11712 whole entry): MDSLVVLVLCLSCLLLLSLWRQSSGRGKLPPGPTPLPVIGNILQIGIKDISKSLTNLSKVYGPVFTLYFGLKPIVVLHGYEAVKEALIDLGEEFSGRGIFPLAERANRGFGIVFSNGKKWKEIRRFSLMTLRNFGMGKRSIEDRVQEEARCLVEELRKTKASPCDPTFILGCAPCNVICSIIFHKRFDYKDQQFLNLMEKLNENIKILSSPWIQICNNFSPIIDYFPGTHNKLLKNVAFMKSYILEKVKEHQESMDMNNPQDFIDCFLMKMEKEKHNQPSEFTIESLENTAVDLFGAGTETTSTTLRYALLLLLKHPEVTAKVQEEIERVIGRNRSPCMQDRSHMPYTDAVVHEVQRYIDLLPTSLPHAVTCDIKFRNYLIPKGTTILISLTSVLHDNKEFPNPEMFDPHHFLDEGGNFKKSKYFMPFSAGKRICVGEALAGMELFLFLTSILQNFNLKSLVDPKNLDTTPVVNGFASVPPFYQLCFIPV

Broadly, the IC50 is the concentration that inhibits the measured activity by half. `C/C=C/C(=O)Oc1c(C(C)CCCCCC)cc([N+](=O)[O-])cc1[N+](=O)[O-]` (stereo not drawn) [2-Methylheptyl-4,6-dinitrophenyl crotonate]: half-maximal inhibition against CYP450 2C9 [1] (IC50) was put at 0.12 ± 0.001 µM.
One may read the EC50 as the midpoint of the concentration-response curve. A high value points to a need for much substance. As for `Clc1ccc(-c2nc3ccccc3s2)cc1` [CPB, 2-(4-chlorophenyl)-benzothiazole], the EC50 in series [2] stood at 11.4 µM.
In turn, `CCOP(=S)(OCC)SCSc1ccc(Cl)cc1` [Carbophenothion, carbophenothion] came in with an IC50 in series [3] of 0.11 ± 0.015 µM.
Take `CCOP(=S)(OCC)Oc1nc(Cl)c(Cl)cc1Cl` [Chlorpyrifos, chlorpyrifos]: the IC50 against CYP450 2C9 [4] is 3.2 µM.
In turn, `O=C1C(Cl)=C(Cl)C(=O)c2ccccc21` [Dichlone, dichlone] yielded an EC50 in series [2] above 10 µM.
At estrogen receptor (ER), `ClC1=C(Cl)C2(Cl)C3C4CC(C5OC45)C3C1(Cl)C2(Cl)Cl` (stereo not drawn) [Endrin] gave an EC50 of 13 µM.
`CCOP(=S)(OCC)Oc1ccc([N+](=O)[O-])cc1` [Parathion, parathion] yielded an IC50 in series [3] of 0.0049 ± 0.0004 µM.
As to `CC1CCCCC1NC(=O)Nc1ccccc1` (stereo not drawn) [Siduron, siduron], the IC50 in series [5] is 0.033 ± 0.003 µM.
`O=C(Nc1ccc(Cl)cc1)Nc1ccc(Cl)c(Cl)c1` [TCC, trichlorocarbanilide]: the IC50 in series [5] was 0.013 ± 0.001 µM.
Take `O=P(Oc1ccccc1)(Oc1ccccc1)Oc1ccccc1` [TPP, triphenyl phosphate]: in series [6], the IC50 came out at 0.043 ± 0.003 µM.
The term Ki denotes the dissociation constant of the complex between target and ligand, obtained from inhibition or displacement. A low value points to tighter binding. In series [6], `Oc1cc(Cl)ccc1Oc1ccc(Cl)cc1Cl` [Triclosan, triclosan] yielded an IC50 of 0.21 ± 0.02 µM and a Ki of 0.105 ± 0.005 µM.
On to `ClC(Cl)=C(c1ccc(Cl)cc1)c1ccccc1Cl` [o,p-DDE, dichlorodiphenyldichloroethylene], for which, at estrogen receptor (ER), it took 1.2 µM to reach a half-maximal effect (EC50). Further, at estrogen receptor (ER) (relative to E2), the “EC50 for ER induction, fold less potent than E2” value is “approximately 10^5 fold”.
Pyrethrum registered an IC50 at CYP450 2C9 [1] of 2.3 µM.

The record behind these values is PMC2799460 (Environmental Health Perspectives, 2009).
